Source: US9035056B2, “Pyrido[4,3-b]indole and pyrido[3,4-b]indole derivatives and methods of use” (Medivation Technologies, Inc., priority 2011, dated 2015)

Legend:
[1] = target: T1, rat adrenergic α1B receptor (Rattus norvegicus, UniProt P15823); experiment: Adrenergic α1B radioligand binding ([3H]Prazosin); conditions: 0.1 μM compound; 0.1 µM
T1 construct: rat adrenergic α1B receptor obtained from Wistar Rat liver; from tissue; host or cells: Wistar rat liver
T1 sequence (P15823 1-515): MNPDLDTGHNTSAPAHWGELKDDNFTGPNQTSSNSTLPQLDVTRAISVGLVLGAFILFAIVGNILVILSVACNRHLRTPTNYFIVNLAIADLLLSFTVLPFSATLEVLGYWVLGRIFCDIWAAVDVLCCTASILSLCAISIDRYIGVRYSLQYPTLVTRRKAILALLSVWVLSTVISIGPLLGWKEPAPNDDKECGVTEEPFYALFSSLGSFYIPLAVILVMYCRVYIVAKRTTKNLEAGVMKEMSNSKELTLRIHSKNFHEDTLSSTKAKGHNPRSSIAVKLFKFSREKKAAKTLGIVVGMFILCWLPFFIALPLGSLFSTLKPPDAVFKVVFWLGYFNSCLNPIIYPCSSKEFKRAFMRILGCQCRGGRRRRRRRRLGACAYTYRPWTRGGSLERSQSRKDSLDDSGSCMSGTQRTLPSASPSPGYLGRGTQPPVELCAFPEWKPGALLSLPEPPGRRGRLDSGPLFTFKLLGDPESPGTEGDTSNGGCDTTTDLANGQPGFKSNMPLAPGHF
Experimental: To evaluate in radioligand binding assays the activity of compounds of the invention, rat adrenergic α1B receptor obtained from Wistar Rat liver (Garcia-S'ainz, J. et al, Biochem. Biophys. Res. Commun. 186:760, 1992; Michel, A. et al, Br. J. Pharmacol. 98:883, 1989) in a modified Tris-HCl buffer (50 mM Tris-HCl buffer, pH 7.4, 0.5 mM EDTA) was used. Compounds of the invention were incubated with 0.25 nM [^3H]Prazosin for 60 min at 25° C. Non-specific binding was estimated in the presence of 10 μM phentolamine. Receptor proteins were filtered and washed, the filters were then counted to determine [^3H]Prazosin specifically bound. Compounds were screened at 1 μM or lower, using 1% DMSO as vehicle. Biochemical assay results are presented as the percent inhibition of specific binding in Table 3.

[2] = target: T2, human recombinant adrenergic α2A receptor (Homo sapiens, UniProt P08913); experiment: Adrenergic α2A radioligand binding ([3H]MK-912); conditions: 0.1 μM compound; 0.1 µM
T2 construct: expressed in transfected cells; host or cells: insect Sf9 cells
T2 sequence (P08913 1-465): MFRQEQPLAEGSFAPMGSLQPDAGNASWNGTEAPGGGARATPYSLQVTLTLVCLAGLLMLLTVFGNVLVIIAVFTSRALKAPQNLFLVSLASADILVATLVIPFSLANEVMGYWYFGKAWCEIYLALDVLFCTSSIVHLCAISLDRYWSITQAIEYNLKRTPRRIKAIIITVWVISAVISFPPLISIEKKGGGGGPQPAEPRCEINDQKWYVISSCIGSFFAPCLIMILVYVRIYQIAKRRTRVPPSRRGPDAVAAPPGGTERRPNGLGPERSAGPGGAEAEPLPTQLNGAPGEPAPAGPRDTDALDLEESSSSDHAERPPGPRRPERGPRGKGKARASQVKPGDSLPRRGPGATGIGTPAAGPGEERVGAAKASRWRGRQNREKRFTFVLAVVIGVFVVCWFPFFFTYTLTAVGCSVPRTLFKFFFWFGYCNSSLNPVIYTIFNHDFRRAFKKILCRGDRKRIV
Experimental: To evaluate in radioligand binding assays the activity of compounds of the invention, human recombinant adrenergic α2A receptor expressed in insect Sf9 cells (Uhlen, S. et al, J. Pharmacol. Exp. Ther. 271:1558, 1994) in a modified Tris-HCl buffer (50 mM Tris-HCl, pH 7.4, 12.5 mM MgCl2, 2 mM EDTA) was used. Compounds of invention were incubated with 1 nM [^3H]MK-912 for 60 min at 25° C. MK-912 is (2S-trans)-1,3,4,5′,6,6′,7,12b-octahydro-1′,3′-dimethyl-spiro[2H-benzofuro[2,3-a]quinolizine-2,4′(1′H)-pyrimidin]-2′(3′H)-one hydrochloride Non-specific binding was estimated in the presence of 10 μM WB-4101 (2-(2,6-Dimethoxyphenoxyethyl)aminomethyl-1,4-benzodioxane hydrochloride). Receptor proteins were filtered and washed, the filters were then counted to determine [^3H]MK-912 specifically bound. Compounds were screened at 1 μM or lower, using 1% DMSO as vehicle. Biochemical assay results are presented as the percent inhibition of specific binding in Table 3.

[3] = target: T3, human recombinant adrenergic α2B receptor (Homo sapiens, UniProt P18089); experiment: Adrenergic α2B radioligand binding ([3H]Rauwolscine); conditions: 0.03 μM compound; 0.03 µM
T3 construct: expressed in transfected cells; host or cells: CHO-K1
T3 sequence (P18089 1-450): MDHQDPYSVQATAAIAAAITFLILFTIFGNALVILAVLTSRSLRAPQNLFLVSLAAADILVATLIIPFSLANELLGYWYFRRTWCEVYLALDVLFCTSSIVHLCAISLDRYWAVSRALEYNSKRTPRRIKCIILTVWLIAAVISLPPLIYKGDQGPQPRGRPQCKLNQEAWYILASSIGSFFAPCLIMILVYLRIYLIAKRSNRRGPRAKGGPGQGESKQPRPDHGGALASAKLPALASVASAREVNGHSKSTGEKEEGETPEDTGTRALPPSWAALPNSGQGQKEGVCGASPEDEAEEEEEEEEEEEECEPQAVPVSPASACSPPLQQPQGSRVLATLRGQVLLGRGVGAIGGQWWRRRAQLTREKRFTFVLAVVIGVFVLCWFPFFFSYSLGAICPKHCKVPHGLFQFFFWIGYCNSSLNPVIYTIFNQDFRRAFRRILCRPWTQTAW
Experimental: To evaluate in radioligand binding assays the activity of compounds of the invention, human recombinant adrenergic α2B receptor expressed in Chinese hamster ovary (CHO) K1 cells (Uhlen, S. et al, Eur. J. Pharmacol. 343(1):93, 1998) in a modified Tris-HCl buffer (50 mM Tris-HCl, pH 7.4, 12.5 mM MgCl2, 1 mM EDTA, 0.2% BSA) was used. Compounds of the invention were incubated with 2.5 nM [^3H]Rauwolscine for 60 min at 25° C. Non-specific binding was estimated in the presence of 10 μM Prazosin. Receptor proteins were filtered and washed, the filters were then counted to determine [^3H]Rauwolscine specifically bound. Compounds were screened at 1 μM or lower, using 1% DMSO as vehicle. Biochemical assay results are presented as the percent inhibition of specific binding in Table 3.

[4] = target: T4, human recombinant histamine H1 receptor (Homo sapiens, UniProt P35367); experiment: Histamine H1 radioligand binding ([3H]Pyrilamine); conditions: 0.1 μM compound; 0.1 µM
T4 construct: expressed in transfected cells; host or cells: CHO-K1
T4 sequence (P35367 whole entry): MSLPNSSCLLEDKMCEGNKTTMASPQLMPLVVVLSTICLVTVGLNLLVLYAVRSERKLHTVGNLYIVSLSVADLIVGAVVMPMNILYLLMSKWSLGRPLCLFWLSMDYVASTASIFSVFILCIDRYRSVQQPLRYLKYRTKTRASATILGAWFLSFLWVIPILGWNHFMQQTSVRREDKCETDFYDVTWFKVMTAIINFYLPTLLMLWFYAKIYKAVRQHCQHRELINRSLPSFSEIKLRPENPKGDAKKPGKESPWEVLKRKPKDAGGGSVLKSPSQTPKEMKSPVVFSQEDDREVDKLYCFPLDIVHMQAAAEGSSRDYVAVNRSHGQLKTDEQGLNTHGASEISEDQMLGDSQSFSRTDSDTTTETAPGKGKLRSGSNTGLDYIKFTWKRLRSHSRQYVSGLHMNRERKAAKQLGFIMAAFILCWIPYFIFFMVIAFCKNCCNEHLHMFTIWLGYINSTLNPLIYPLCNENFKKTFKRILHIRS
Experimental: To evaluate in radioligand binding assays the activity of compounds of the invention, human recombinant histamine H1 receptor expressed in Chinese hamster ovary (CHO) K1 cells (De Backer, M. et al, Biochem. Biophys. Res. Comm. 197(3):1601, 1993) in a modified Tris-HCl buffer (50 mM Tris-HCl, pH 7.4, 2 mM MgCl2, 100 mM NaCl, 250 mM Sucrose) was used. Compounds of the invention were incubated with 1.2 nM [^3H]Pyrilamine for 180 min at 25° C. Non-specific binding was estimated in the presence of 1 μM Pyrilamine. Receptor proteins were filtered and washed, the filters were then counted to determine [^3H]Pyrilamine specifically bound. Compounds were screened at 1 μM or lower, using 1% DMSO as vehicle. Biochemical assay results are presented as the percent inhibition of specific binding in Table 3.

## Cc1ccc2c(c1)c1c(n2CC2(O)CCc3ccccc32)CCN(C)C1 (single isomer, unassigned) [ii-111a]
[1]
  Percentage inhibition of ligand binding, Adrenergic α1B: 94%
[2]
  Percentage inhibition of ligand binding, Adrenergic α2A: 45%
[3]
  Percentage inhibition of ligand binding, Adrenergic α2B: 76%

## Cc1ccc2c(c1)c1c(n2CC2(O)CCc3ccccc32)CCN(C)C1 (single isomer, unassigned) [ii-111b]
[1]
  Percentage inhibition of ligand binding, Adrenergic α1B: 51%
[2]
  Percentage inhibition of ligand binding, Adrenergic α2A: 22%
[3]
  Percentage inhibition of ligand binding, Adrenergic α2B: 0%

## Cc1ccc2c(c1)c1c(n2CC2(O)CCCc3ccncc32)CCN(C)C1 (single isomer, unassigned) [ii-113b]
[4]
  Binding data (Percentage inhibition) Histamine H1 (0.1 μM): 6%
[1]
  Percentage inhibition of ligand binding, Adrenergic α1B: 82%
[2]
  Percentage inhibition of ligand binding, Adrenergic α2A: 8%
[3]
  Percentage inhibition of ligand binding, Adrenergic α2B: 68%
